# Measurements taken from US20040248871A1, “Use of lysyl oxidase inhibitors for cell culture and tissue engineering” (priority 2001, published 2004).
# Values joined by “and” are separate entries in the source; they are usually repeats but may differ in a detail not shown here. Identical values can stand only once.
# Legend:
# [1] = test system: LOX, LOXL1 expression by chondrocytes; assay: Immunodecoration with anti LOX, LOXL1 antibodies of extracts of chondrocyte cell lawns and culture medium; type: cell-based, chicken; conditions: 6th or 14th day of culture
# Procedure: (§1) The Lysyl oxidase activity was assayed with 300,000 dpm of labelled elastin on the Lysine, substrate of the enzyme (Shackelton and Hulmes Anal. Biochem. (1990) 185: 359-362). The determination of the presence of Lysyl oxidases in the cultures of chondrocytes is carried out according to the standard methods of immunodecoration of the supports onto which the bands separated from the proteins extracted from the corresponding culture media or from the cell lawns have been transferred.
# The day before the samples are taken, the cell lawn is washed three times with medium without serum. The medium is then changed for 24 hours with complete medium without serum.
# On the 6th or 14th day of culture the media are sampled and precipitated in a standard fashion with TCA 10% final/4° C./[…]. The centrifugation pellets are rinsed with acetone then solubilized in a 50 μl electrophoresis buffer. The rinsed cell lawns are lysed 2 hours/4° C. (300 μl/P35) in the mixture 8M urea, 0.5% Nonidet, 16 mM disodium phosphate pH 8 and protease inhibitors. […]
# After separation by SDS PAGE and transfer by Western Blot, the protein bands are analyzed by immunodecoration using polyclonal anti-LOX and anti-LOXL1 antibodies from rabbits, then a second anti-rabbit antibody marked with alkaline phosphatase before development with the reagent NBT/BCIP (Roche Diagnostic GmBH, Mannheim, Germany).
# [2] = test system: normal human chondrocytes; assay: Normal human chondrocytes in 3D culture in collagen-GAG-chitosan sponge (immunofluorescence, histology); type: cell-based; conditions: 3D culture in sponge, three months
# Excerpt: The chondrocytes obtained after ligamentoplasty have been used for the three-dimensional culture in collagen-GAG-chitosan sponge (Collombel et al. 1987)* in the presence or absence of BAPN (FIGS. 7 and 8). * Collombel C., Damour O., Gagneu C., Poinsignon F., Echinard C., Marichy J.: Peau artificielle et son procédé de fabrication. French Patent No. 87-08752 (15th Jun. 1987), European Patent No. 88-420194.8 (14th Jun. 1988).
# Nevertheless, human chondrocytes dedifferentiated in terms of the period of culture necessary for their multiplication in culture on plastic, can advantageously be placed in three-dimensional (3D) culture in the presence of βAPN. The placing in 3D culture not being sufficient, in itself, to ensure a return to the cartilage phenotype lost during the 2-dimensional culture in the presence of serum, as was described for 3D cultures in agarose.
# 3 D culture in sponges of collagen-GAG-chitosan in the presence of serum and βAPN of normal human chondrocytes. The chondrocytes were previously multiplied, and dedifferentiated, in 2D culture on plastic.
# [3] = test system: hypertrophic chondrocytes of chicken embryos; assay: Reversibility of effects on bridgings of collagen IX chains in cell lawn of hypertrophic chondrocytes (fluorography); type: cell-based; conditions: washings with PBS then medium without βAPN
# Procedure: Chondrocytes of the cranial section of the sternum were inoculated at a high concentration (5 million cells per P35 Petri dish) then subjected to 24 hours of radio-labelling with proline 14C on the 7th, 14th and […] day of culture (respectively day 7, day 14 and day 21).
# βAPN was present (+) or absent. (−) for the entire duration of the culture, or present only during the first week ((+)).
# [4] = test system: deep chondrocytes of the cotyloid ligament; assay: Human cotyloid cartilage chondrocytes in 2D culture on plastic; type: cell-based; conditions: hyaluronidase in extraction medium, two weeks, serum
# Excerpt: b) The cultures of normal human chondrocytes originate from cartilages taken during hip prosthesis or ligamentoplasty surgery, then subjected to enzymatic digestion. These cartilage biopsies are considered as res nullus.
# The chondrocytes extracted from the cotyloid ligament have been used for the two-dimensional culture on plastic in the presence of BAPN: the cultures obtained after enzymatic digestion of the cartilages in the presence or absence of hyaluronidase were compared (FIGS. 4 and 5).
# The 24-hour radio-labellings with the 14C proline were carried out on the 2nd, 7th and 14th day of culture in the presence of serum and βAPN (day 2, day 7 and day 14 respectively). The pepsinated extracts of culture medium and cell lawn were subjected to electrophoresis then fluorography.
# The superficial areas (even numbers) and deep areas (odd numbers) of the cotyloid cartilage were separated before being subjected to enzymatic digestion in the presence or absence of hyaluronidase.
# [5] = test system: keratinocytes; assay: Keratinocytes cultured in monolayer: cell count and MTT viability test; type: cell-based, human
# Excerpt: The support of the reconstructed skin model is constituted by a dermal substrate (DS) with a base of collagen-glycosaminoglycan cross-linked by chitosan according to the technique published by Duplan-Perrat et al (J Invest Dermatol 2000 114:365). Fibroblasts are inoculated the inside of the DS in order to obtain an equivalent dermis. The reconstituted skin (RS) is obtained by inoculating the keratinocytes after 15 days (day 15) of culture in equivalent dermis. The dermal fibroblasts are obtained from explants of human prepuces after dermal-epidermal separation and cultured in monolayer in DMEM medium (Sigma) supplemented by 10% fœtal calf serum, 4 mM L-glutamine, EGF (Austral Biologic) at 10 ng/ml, penicillin at 100 UI/ml, gentamicin at 100 μg/ml and amphotericin B at 1 μg/ml. The keratinocytes are from a human skin biopsy sample after dermal-epidermal separation by trypsination. The cells are inoculated nutritive layers (irradiated fibroblasts) and cultured in DMEM and HAM F12 at 30% supplemented with fœetal calf serum at 10%, EGF at 10 ng/ml, hydrocortisone at 1.6 ng/ml, umulin at 0.12 UI/ml, choleratoxin at 0.1 nM, triiodothyronine at 0.2 μM, adenine at 24 μg/ml, 4 mM L-Glutamine, penicillin at 100 UI/ml, gentamicin at 100 μg/ml and amphotericin B at 1 μg/ml.
# In fact, the number of these cells is reduced by approximately 50% compared to the control when they are cultured in the presence of 600 μg/ml of βAPN. […] The results of the MTT viability test confirm those of the cell count. […] It must be emphasized that βAPN at 200 μg/ml can optionally cause an increase in cell activity (proliferation and viability) on the fibroblasts inoculated at a low density, and on the fibroblasts and the keratinocytes inoculated at a high density.
# [6] = test system: standard purified aortic LO; assay: Lysyl oxidase activity assay with tritiated elastin substrate on standard purified aortic LO; type: biochemical; conditions: Experiment 2, substrate no. 2, standard purified aortic LO
# Procedure: as §1
# [7] = test system: Lysyl oxidase; assay: Lysyl oxidase activity assay with tritiated elastin substrate on culture media of chicken embryo chondrocytes; type: biochemical
# Procedure: as §1
# Lysyl oxidase activities (inhibited by βAPN and assayed by the production of tritiated water) are secreted in the culture media. The specific activity recorded in the media is stronger on the 7th day of culture than on the 13th day. The extracellular matrix being richer in natural collagenic substrates of the Lysyl oxidase activity on the 13th day of culture, it would thus retain the enzyme in the cell lawn.
smiles,measurement,setting,value
"N#CCCN [βAPN, β-aminopropionitrile]","expression of Lysyl oxidase molecules (LOX, LOXL1)",[1],does not modify the expression of Lysyl oxidase molecules
same,intensity of marking of the collagen I,[2],strong decrease
same,intensity of marking of the collagen II and of the aggrecan (cartilage markers),[2],clear increase
same,reversibility of the modifications in the bridgings between chains of collagen IX after elimination of βAPN,[3],≤ 6 days
same,"preservation of morphology and phenotype (matrix of cartilaginous type, without collagen I)",[4],preserving their morphology and their phenotype
same,reduction of proliferation of the keratinocytes,[5]; 200 μg/ml,approximately 10%
same,effect on the viability and the multiplication,"[5]; 200 μg/ml, isolated cultures",little effect
same,reduction of the number of cells compared to the control,[5]; 600 μg/ml,approximately 50%
same,concentration with inhibiting effect on proliferation,[5]; cell count and MTT,greater than 500 μg/ml
same,toxic effect on cells at confluence,[5]; up to 800 μg/ml,no toxic effect
same,dpm + βAPN (Lysyl oxidase activity assay),[6],4340 dpm and 4762 dpm
same,dpm + βAPN (Lysyl oxidase activity assay),"[7]; Experiment 1, substrate no. 1, culture − FCS, + cys, Day 3, caudal chondrocytes, 15% medium P35",674 dpm and 718 dpm
same,dpm + βAPN (Lysyl oxidase activity assay),"[7]; Experiment 2, substrate no. 2, culture + FCS, − cys, Day 7, caudal chondrocytes, 25% medium P35",5296 dpm and 6210 dpm
same,dpm + βAPN (Lysyl oxidase activity assay),"[7]; Experiment 2, substrate no. 2, culture + FCS, − cys, Day 7, cranial chondrocytes, 100% medium P35",5800 dpm and 6536 dpm
same,dpm + βAPN (Lysyl oxidase activity assay),"[7]; Experiment 2, substrate no. 2, culture + FCS, − cys, Day 13, caudal chondrocytes, 75% medium P35",4344 dpm and 4702 dpm
same,dpm + βAPN (Lysyl oxidase activity assay),"[7]; Experiment 2, substrate no. 2, culture + FCS, − cys, Day 13, cranial chondrocytes, 100% medium P35",4580 dpm and 4618 dpm
